Experimental data taken from PubChem BioAssay AID256 (DTP/NCI, 2004).
Where “and” joins values, the source holds several entries; their conditions need not be identical. Identical values can stand only once. Toxic doses and inconclusive results are not listed.

Test system: CD2F1 mice, L1210 leukemia ip, survival T/C
Assay: NCI In Vivo Anticancer Drug Screen. Data for tumor model L1210 Leukemia (intraperitoneal) in CD2F1 (CDF1) mice
Settings: higher = longer survival
Method in brief: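 Tumor-bearing mice (transplanted tumor) were split into treated and vehicle control groups, and the measured endpoint of each treated group was divided by that of its vehicle controls.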

CSCCC(NC(=O)c1ccccc1)C(=O)O (stereo not given)
T/C (endpoint: mean survival time, dose: 100.0 mg/kg/injection, schedule: Q01DX009 (ip), vehicle: saline with Tween-80): 91 % of control | T/C (endpoint: mean survival time, dose: 200.0 mg/kg/injection, schedule: Q01DX009 (ip), vehicle: saline with Tween-80): 87 % of control | T/C (endpoint: mean survival time, dose: 400.0 mg/kg/injection, schedule: Q01DX009 (ip), vehicle: saline with Tween-80): 90 % of control

C=CCCCC[P+](c1ccccc1)(c1ccccc1)c1ccccc1
T/C (endpoint: mean survival time, dose: 3.0 mg/kg/injection, schedule: Q01DX015 (ip), vehicle: saline): 97 % of control | T/C (endpoint: mean survival time, dose: 12.0 mg/kg/injection, schedule: Q01DX015 (ip), vehicle: saline): 100 % of control | T/C (endpoint: mean survival time, dose: 24.0 mg/kg/injection, schedule: Q01DX015 (ip), vehicle: saline): 97 % of control

Cc1ccc(NC(=O)Oc2ccc(Br)cc2Br)c([N+](=O)[O-])c1
T/C (endpoint: mean survival time, dose: 50.0 mg/kg/injection, schedule: Q04DX003 (ip), vehicle: saline with Tween-80): 106 % of control | T/C (endpoint: mean survival time, dose: 100.0 mg/kg/injection, schedule: Q04DX003 (ip), vehicle: saline with Tween-80): 104 % of control | T/C (endpoint: mean survival time, dose: 200.0 mg/kg/injection, schedule: Q04DX003 (ip), vehicle: saline with Tween-80): 96 % of control | T/C (endpoint: mean survival time, dose: 400.0 mg/kg/injection, schedule: Q04DX003 (ip), vehicle: saline with Tween-80): 100 % of control | T/C (endpoint: median survival time, dose: 100.0 mg/kg/injection, schedule: Q01DX009 (ip), vehicle: saline with Tween-80): 98 % of control | T/C (endpoint: median survival time, dose: 200.0 mg/kg/injection, schedule: Q01DX009 (ip), vehicle: saline with Tween-80): 100 % of control | T/C (endpoint: median survival time, dose: 400.0 mg/kg/injection, schedule: Q01DX009 (ip), vehicle: saline with Tween-80): 105 % of control | T/C (endpoint: median survival time, dose: 800.0 mg/kg/injection, schedule: Q01DX009 (ip), vehicle: saline with Tween-80): 101 % of control

[O-][n+]1c2c(cc3ccccc31)Cc1ccccc1-2
T/C (endpoint: mean survival time, dose: 100.0 mg/kg/injection, schedule: Q04DX003 (ip), vehicle: Klucel (hydroxypropylcellulose) (HPC)): 98 % of control | T/C (endpoint: mean survival time, dose: 200.0 mg/kg/injection, schedule: Q04DX003 (ip), vehicle: Klucel (hydroxypropylcellulose) (HPC)): 96 % of control | T/C (endpoint: mean survival time, dose: 400.0 mg/kg/injection, schedule: Q04DX003 (ip), vehicle: Klucel (hydroxypropylcellulose) (HPC)): 93 % of control

CN(C)c1ccc(C2OC3(CCCCC3)C[N+]23CCCC3)cc1 (stereo not given)
T/C (endpoint: mean survival time, dose: 3.12 mg/kg/injection, schedule: Q01DX009 (ip), vehicle: saline with Tween-80): 101 % of control | T/C (endpoint: mean survival time, dose: 6.25 mg/kg/injection, schedule: Q01DX009 (ip), vehicle: saline with Tween-80): 97 % of control | T/C (endpoint: mean survival time, dose: 12.5 mg/kg/injection, schedule: Q01DX009 (ip), vehicle: saline with Tween-80): 97 % of control

NC(Cn1ccc(=O)c(O)c1)C(=O)O (stereo not given)
T/C (endpoint: median survival time, dose: 50.0 mg/kg/injection, schedule: Q01DX009 (ip), vehicle: saline): 106 % of control | T/C (endpoint: median survival time, dose: 100.0 mg/kg/injection, schedule: Q01DX009 (ip), vehicle: saline): 107 % of control | T/C (endpoint: median survival time, dose: 200.0 mg/kg/injection, schedule: Q01DX009 (ip), vehicle: saline): 107 % of control | T/C (endpoint: median survival time, dose: 400.0 mg/kg/injection, schedule: Q01DX009 (ip), vehicle: saline): 114 % of control

COc1cccc2c1C(=O)c1c(O)c3c(c(O)c1C2=O)CC(O)(/C(C)=N/NC(=O)CCCCC(=O)N/N=C(\C)C1(O)Cc2c(O)c4c(c(O)c2C(OC2CC(N)C(O)C(C)O2)C1)C(=O)c1c(OC)cccc1C4=O)CC3OC1CC(N)C(O)C(C)O1 (stereo not given)
T/C (endpoint: median survival time, dose: 1.5 mg/kg/injection, schedule: Q01DX009 (ip), vehicle: water): 116 % of control and 123 % of control | T/C (endpoint: median survival time, dose: 3.0 mg/kg/injection, schedule: Q01DX009 (ip), vehicle: water): 121 % of control | T/C (endpoint: median survival time, dose: 6.25 mg/kg/injection, schedule: Q01DX009 (ip), vehicle: water): 153 % of control | T/C (endpoint: median survival time, dose: 12.5 mg/kg/injection, schedule: Q01DX009 (ip), vehicle: water): 108 % of control | T/C (endpoint: median survival time, dose: 24.0 mg/kg/injection, schedule: Q01DX009 (ip), vehicle: water): 97 % of control | T/C (endpoint: median survival time, dose: 25.0 mg/kg/injection, schedule: Q01DX009 (ip), vehicle: water): 87 % of control

NC(CSS(=O)(=O)O)=NCC1CCCCC1
T/C (endpoint: mean survival time, dose: 6.25 mg/kg/injection, schedule: Q04DX002 (ip), vehicle: saline with Tween-80): 101 % of control and 107 % of control | T/C (endpoint: mean survival time, dose: 12.5 mg/kg/injection, schedule: Q04DX002 (ip), vehicle: saline with Tween-80): 104 % of control and 112 % of control | T/C (endpoint: mean survival time, dose: 25.0 mg/kg/injection, schedule: Q04DX002 (ip), vehicle: saline with Tween-80): 96 % of control

O=c1c2cccc3c2-c2c4c(cccc14)c(O)c1cccc(c3=O)c21
T/C (endpoint: mean survival time, dose: 100.0 mg/kg/injection, schedule: Q04DX003 (ip), vehicle: saline sonified): 94 % of control | T/C (endpoint: mean survival time, dose: 200.0 mg/kg/injection, schedule: Q04DX003 (ip), vehicle: saline sonified): 95 % of control | T/C (endpoint: mean survival time, dose: 400.0 mg/kg/injection, schedule: Q04DX003 (ip), vehicle: saline sonified): 92 % of control

CN(C)/N=C/c1ccccn1
T/C (endpoint: mean survival time, dose: 25.0 mg/kg/injection, schedule: Q04DX003 (ip), vehicle: saline): 98 % of control | T/C (endpoint: mean survival time, dose: 50.0 mg/kg/injection, schedule: Q04DX003 (ip), vehicle: saline): 95 % of control | T/C (endpoint: mean survival time, dose: 100.0 mg/kg/injection, schedule: Q04DX003 (ip), vehicle: saline): 101 % of control | T/C (endpoint: mean survival time, dose: 200.0 mg/kg/injection, schedule: Q04DX003 (ip), vehicle: saline): 120 % of control
